Experimental data reported in patent US9790545B2, “Method for determining the neurodevelopmental toxicity of a compound in vitro” (UNIVERSITEIT MAASTRICHT, priority 2012, dated 2017).
Read-outs that look alike come from different tables or passages of the source.

How the values were obtained:
[1] = system: Hoxb6; test: Relative gene expression in neural differentiation culture of murine embryonic stem cells (ES-D3), microarray; settings: exposed from day 3, harvested day 4 (24 h exposure), ratio to reference value, concentration coded in label (L low, H high, Table 3)
[2] = system: Tph1; test: as above; settings: exposed from day 3, harvested day 4 (24 h exposure), ratio to reference value, concentration coded in label (L low, H high, Table 3)
[3] = system: neural outgrowth of embryoid bodies from murine embryonic stem cells (ES-D3); test: Golden standard classification of neurodevelopmental toxicity (morphological scoring of neural outgrowth); settings: for Golden standard: tox / nontox at the concentration coded in the label (Table 3); for Neuro-developmentally toxic: yes / no at the concentration (μM) given in Table 3
[4] = system: Nrk; test: Relative gene expression in neural differentiation culture of murine embryonic stem cells (ES-D3), microarray; settings: exposed from day 3, harvested day 4 (24 h exposure), ratio to reference value, concentration coded in label (L low, H high, Table 3)
[5] = system: 1700011H14Rik; test: as above; settings: exposed from day 3, harvested day 4 (24 h exposure), ratio to reference value, concentration coded in label (L low, H high, Table 3)
[6] = system: neural outgrowth of embryoid bodies from murine embryonic stem cells (ES-D3)

| Molecule | relative expression value Hoxb6 [1] | relative expression value Tph1 [2] | Golden standard [3] | Neuro-developmentally toxic [3] | relative expression value Nrk [4] | relative expression value 1700011H14Rik [5] | also measured |
| --- | --- | --- | --- | --- | --- | --- | --- |
| CCCC(CCC)C(=O)O [VpaL, Valproic acid] | 0.807 | 0.944 | nontox | no | 0.914 | 0.962 | relative expression value Hoxb6 ([1]; listed as VpaH): 0.721; relative expression value Tph1 ([2]; listed as VpaH): 1.130; Golden standard ([3]; listed as VpaH): tox; Neuro-developmentally toxic ([3]; listed as vpaH): yes; relative expression value Nrk ([4]; listed as VpaH): 1.518; relative expression value 1700011H14Rik ([5]; listed as VpaH): 0.316 |
| CC=O [aceL, Acetaldehyde] | 0.917 | 0.891 | nontox | no | 0.909 | 1.175 | relative expression value Hoxb6 ([1]; listed as aceH): 1.100; relative expression value Tph1 ([2]; listed as aceH): 1.094; Golden standard ([3]; listed as aceH): tox; Neuro-developmentally toxic ([3]; listed as aceH): yes; relative expression value Nrk ([4]; listed as aceH): 1.290; relative expression value 1700011H14Rik ([5]; listed as aceH): 0.562 |
| NC(=O)N1c2ccccc2C=Cc2ccccc21 [cbzL, Carbamazepine] | 0.991 | 0.945 | nontox | no | 1.055 | 0.870 | relative expression value Hoxb6 ([1]; listed as cbzH): 0.950; relative expression value Tph1 ([2]; listed as cbzH): 0.751; Golden standard ([3]; listed as cbzH): tox; Neuro-developmentally toxic ([3]; listed as cbzH): yes; relative expression value Nrk ([4]; listed as cbzH): 1.217; relative expression value 1700011H14Rik ([5]; listed as cbzH): 0.533 |
| CCCCC(O)(Cn1cncn1)c1ccc(Cl)cc1Cl (stereo not shown) [hexL, Hexaconazole] |  |  |  |  |  |  | Golden standard [6]: nontox; Neuro-developmentally toxic [6]: no |
| CC1(C)S[C@@H]2[C@H](NC(=O)Cc3ccccc3)C(=O)N2[C@H]1C(=O)[O-].[Na+] [pengL, Penicillin G] |  |  | nontox | no |  |  |  |
| O=C1NC(=O)C(c2ccccc2)(c2ccccc2)N1 [pheL, Phenytoin] | 0.839 | 0.817 | nontox | no | 0.766 | 1.146 | relative expression value Hoxb6 ([1]; listed as pheH): 0.840; relative expression value Tph1 ([2]; listed as pheH): 0.781; Golden standard ([3]; listed as pheH): tox; Neuro-developmentally toxic ([3]; listed as pheH): yes; relative expression value Nrk ([4]; listed as pheH): 0.781; relative expression value 1700011H14Rik ([5]; listed as pheH): 0.995 |
| Methylmercury chloride [mehgH] | 1.302 | 1.116 | tox | yes | 0.719 | 1.665 |  |
